Results as given in the NIST ThermoML archive (doi:10.1016/j.jct.2019.04.023).

Legend:
[1] = 101 kPa, Liquid; for viscosity: Falling or rolling sphere viscometry; for mass density: Vibrating tube method
[2] = xn = mol fraction of the nth substance listed; conditions: 101 kPa, Liquid, x2 = 0; for viscosity: Falling or rolling sphere viscometry; for mass density: Vibrating tube method

CC[N+](CC)=C(N(C)C)N(C)C.O=S(=O)([N-]S(=O)(=O)C(F)(F)F)C(F)(F)F
[1]
Conditions	mass density [kg/m3]	viscosity [mPa·s]
293.15 K	1377.86	81.02
298.15 K	1373.16	65.01
303.15 K	1368.51	52.96
308.15 K	1363.9	43.84
313.15 K	1359.32	36.79
318.15 K	1354.76	31.25
323.15 K	1350.21	26.79

CCO [ethanol]
[1]
Conditions	mass density [kg/m3]	viscosity [mPa·s]
293.15 K	789.53	1.177
298.15 K	785.25	1.074
303.15 K	780.93	0.977
308.15 K	776.58	0.888
313.15 K	772.19	0.819
318.15 K	767.75	0.753
323.15 K	763.27	0.697

CCO [ethanol] + CC[N+](CC)=C(N(C)C)N(C)C.O=S(=O)([N-]S(=O)(=O)C(F)(F)F)C(F)(F)F
[2]
Conditions	mass density [kg/m3]	viscosity [mPa·s]
293.15 K	789.53	1.177
298.15 K	785.25	1.074
303.15 K	780.93	0.977
308.15 K	776.58	0.888
313.15 K	772.19	0.819
318.15 K	767.75	0.753
323.15 K	763.27	0.697

CO [methanol]
[1]
Conditions	mass density [kg/m3]	viscosity [mPa·s]
293.15 K	791.3	0.584
298.15 K	786.6	0.552
303.15 K	781.87	0.524
308.15 K	777.12	0.49
313.15 K	772.34	0.459
318.15 K	767.52	0.439
323.15 K	762.67	0.417

CO [methanol] + CC[N+](CC)=C(N(C)C)N(C)C.O=S(=O)([N-]S(=O)(=O)C(F)(F)F)C(F)(F)F
[2]
Conditions	mass density [kg/m3]	viscosity [mPa·s]
293.15 K	791.3	0.584
298.15 K	786.6	0.552
303.15 K	781.87	0.524
308.15 K	777.12	0.49
313.15 K	772.34	0.459
318.15 K	767.52	0.439
323.15 K	762.67	0.417
